{"source": "paper PMC9415509", "about": "“Pro-Apoptotic Antitumoral Effect of Novel Acridine-Core Naphthoquinone Compounds against Oral Squamous Cell Carcinoma” (Molecules, 2022)", "assay_type_in_all_cases": "cell-based, human", "key": {"SCC9 cells [1]": {"test_system": "SCC9 cells", "test": "Phosphatidylserine exposure analysis (Annexin V/PI)", "details": "SCC9, 48 h", "procedure": "(§1) Phosphatidylserine exposure analysis (apoptosis). Cells of the SCC9 cell line were plated in 6-well plates (5 × 10^5 cells/well), trypsinized 48 h after treatment, labeled using the Annexin V-FITC Apoptosis Detection Kit according to the manufacturer’s protocol (#BMS500FI/300, Invitrogen), and analyzed by FACScalibur flow cytometry as in [50]. Furthermore, 5 × 10^4 SCC9 cells were plated in a 24-well plate containing 1 mL of DMEM/F12 with 10% FBS per well. CellEvent™ Caspase-3/7 Reagent (#R37111, Invitrogen) was diluted in a culture medium according to the manufacturer’s instructions. […] The cells were analyzed by flow cytometry at the time of 48 h of treatment."}, "SCC4 OSCC cell line": {"test_system": "SCC4 OSCC cell line", "test": "MTT cell viability assay (cytotoxicity), SCC4", "procedure": "(§2) Cells and reagents. Human SCC-4, SCC-9, and SCC-25 cells, derived from a human oral tongue SCC (squamous cell carcinoma) were obtained from the ATCC (CRL-1624, CRL-1629, and CRL-1628, respectively) and maintained in 1:1 DMEM/F12 (Dulbecco’s modified Eagle medium and Ham’s F12 medium; Gibco (Thermo Fisher, Waltham, MA, USA)) supplemented with 10% (v/v) FBS (fetal bovine serum; Invitrogen, Thermo Fisher, Waltham, MA, USA) and 400 ng/mL hydrocortisone (Sigma-Aldrich Co., St. Louis, MO, USA). Primary normal human gingival fibroblasts were obtained from the ATCC (PCS-201-018) and maintained in DMEM supplemented with 10% (v/v) FBS and were used in a maximum of six passages. The cells were grown in a humidified environment containing 5% CO2 at 37 °C. […] Carboplatin stock was prepared in water (Fauldcarbo®; LibbsFarmacêutica, São Paulo, SP, Brazil) and was used as a standard anticancer compound.\n(§3) Cell viability assay (cytotoxicity) and compound stability assay. The viability of SCC cell lines and primary human fibroblast cells was evaluated using the MTT assay as in [48]. Briefly, the cells were grown in triplicates in 96-well plates (5 × 10^3 cells/well) until confluence. Then, the medium was removed, fresh medium was added, and the cells were returned to the incubator in the presence of different compounds. DMSO at the same concentrations was used as a 100% cell viability control. After 48 h, the cells were incubated with 5 mg/mL MTT reagent (3-(4,5-dimethyl-2-thiazolyl)-2,5-diphenyl-2-H-tetrazolium bromide) (Sigma-Aldrich Co., St. Louis, MO, USA) for 3.5 h. After that, formazan crystals were dissolved in MTT solvent solution (DMSO/methanol 1:1 v/v) and the absorbance at 560 nm was evaluated using an EPOCH microplate spectrophotometer (BioTek Instruments, Winooski, VT, USA) with the background absorbance at 670 nm subtracted.\n(§4) Statistical analysis, IC50 calculation. The data are presented as means ±\\SD. IC50 values for the MTT assays were obtained by nonlinear regression using the […] 5.0 program (Intuitive Software for Science, San Diego, CA, USA) from at least three independent experiments. A dose–response (inhibitor) vs. response curve using the least squares method was used to determine the IC50, SD, and R^2 of the data. The selectivity index was calculated as SI = IC50 of the compound in normal oral fibroblast cells/IC50 of the same compound for each oral cancer cell line (SCC-4, SCC-9, and SCC-25) and the mean was calculated when indicated."}, "SCC9-LC3-GFP cells": {"test_system": "SCC9-LC3-GFP cells", "test": "Autophagy assay (LC3-GFP puncta)", "details": "4e 2 × IC50, 48 h; CPP 20% (v/v) 4–6 h", "procedure": "Autophagy assay. To determine if compound 4e induces autophagy, SCC9 cells were stably transduced with LC3-GFP expressing plasmid. For the generation of SCC9 cell lines harboring LC3-GFP, HEK293FT cells were transfected with 3 µg of each helper plasmids (pMDLglpRRE, pHCMV g, and pRSVrev) and 8 µg of the pLV-CMV-SV40-Puro-GFP-LC3 using calcium phosphate and 25 µM chloroquine. Twenty-four hours later, a lentivirus-containing medium was harvested, supplemented with 8 µg/mL of Polybrene, and used to transduce SCC9 cells. Twenty-four hours later, the transduced cells were selected with 5 µg/mL of Puromycin for 7 days. The cells were then cultured with 2.5 µg/mL Puromycin for further experiments. The lentiviral construct encoding pLV-CMV-SV40-Puro-GFP-LC3 was a gift from Dr. SilvyaStuchi Maria Engler. […] As a positive control, calcium phosphate precipitates (CPP) were prepared by adding CaCl2 dropwise to Na2HPO4 (in Hepes, pH 7.05) as previously described. CPP 20% (v/v) was administrated to the cells 4–6 h before analysis."}, "SCC9 cells [2]": {"test_system": "SCC9 cells", "test": "Caspase 3/7 activity, flow cytometry", "details": "SCC9, 2× IC50, 48 h", "procedure": "as §1"}, "SCC25 OSCC cell line": {"test_system": "SCC25 OSCC cell line", "test": "MTT cell viability assay (cytotoxicity), SCC25", "procedure": "as §2, §3, §4"}, "SCC9 cells [3]": {"test_system": "SCC9 cells", "test": "SubG1 analysis (DNA fragmentation), flow cytometry", "details": "SCC9, 72 h of treatment, PI staining", "procedure": "Cell cycle and SubG1 analysis. To evaluate the action of compound 4e on the cell cycle and DNA fragmentation, cells of the SCC9 cell line were plated in a 6-well plate (5 × 10^5 cells/well). After 48 (cell cycle) or 72 h (DNA fragmentation) of treatment, the cells were trypsinized and stained with propidium iodide (75 µM) in the presence of NP-40. The DNA content was analyzed by collecting 10,000 events using a FACScalibur flow cytometer. The data were analyzed using CellQuest (BD Biosciences, Franklin Lakes, NJ, USA) and FlowJo (Tree Star Inc., Ashland, OR, USA) software as in [49]."}, "[4]": {"test_system": "OSCC cells (SCC-4, SCC-9, SCC-25)", "test": "MTT cytotoxicity and selectivity, mean over OSCC cell lines", "procedure": "as §3\nStatistical analysis, IC50 calculation. The data are presented as means ±\\SD. IC50 values for the MTT assays were obtained by nonlinear regression using the […] […] The selectivity index was calculated as SI = IC50 of the compound in normal oral fibroblast cells/IC50 of the same compound for each oral cancer cell line (SCC-4, SCC-9, and SCC-25) and the mean was calculated when indicated."}}, "note": "Several values for one entry are separate records, joined by “and”; a condition that tells them apart may be missing. Equal values may be shown once."}
{"molecule": "CC1(C)CC(=O)C2=C(C1)NC1=C(C(=O)c3ccccc3C1=O)C2c1ccc(Cl)cc1Cl", "note": "(stereo not shown) [4e, 12-(2,4-dichlorophenyl)-3,3-dimethyl-3,4-dihydrobenzo[b]acridine-1,6,11(2H,5H,12H)-trione]", "values": [{"measurement": "Annexin V and Annexin V + PI staining", "setting": "SCC9 cells [1]", "result": "increased single (Annexin V) and double (Annexin V + PI) staining"}, {"measurement": "IC50", "setting": "SCC4 OSCC cell line; Homo sapiens, SCC-4, SCC4, 48 h, MTT, read-out: Oral Tumor Cells SCC4 IC50", "result": 53.8, "unit": "µM"}, {"measurement": "SCC4 S.I.", "setting": "SCC4 OSCC cell line; IC50 normal oral fibroblasts / IC50 SCC4", "result": 1.6}, {"measurement": "LC3-GFP puncta formation (autophagy)", "setting": "SCC9-LC3-GFP cells", "result": "neither DMSO nor 4e were able to induce this cell death process"}, {"measurement": "active caspase 3/7 labeling, cells", "setting": "SCC9 cells [2]", "result": "52.4% and ~ 52%"}, {"measurement": "IC50", "setting": "SCC25 OSCC cell line; Homo sapiens, SCC-25, SCC25, 48 h, MTT, read-out: Oral Tumor Cells SCC25 IC50", "result": 21.5, "unit": "µM"}, {"measurement": "SCC25 S.I.", "setting": "SCC25 OSCC cell line; IC50 normal oral fibroblasts / IC50 SCC25", "result": 4.1}, {"measurement": "DNA fragmentation (Sub-G1 DNA-content), cells", "setting": "SCC9 cells [3]", "result": "25.5% and ~ 25%"}, {"measurement": "IC50", "setting": "[4]; Homo sapiens, mean of SCC4, SCC9, SCC25", "result": 30, "unit": "µM"}, {"measurement": "SI (mean selectivity index)", "setting": "[4]; mean over OSCC cell lines vs normal fibroblasts", "result": "2.9 and 2.93"}]}
